From publication PMC10709440, “High-throughput ligand profile characterization in novel cell lines expressing seven heterologous insect olfactory receptors for the detection of volatile plant biomarkers” (Scientific Reports, 2023)
Several values for one entry are separate records, joined by “and”; a condition that tells them apart may be missing. Equal values may be shown once. Read-outs that look alike come from different tables or passages of the source.

Key:
[1] = molecular target: T1, Drosophila OR49b (Drosophila melanogaster, UniProt Q9V6H2); experiment: cell-based; conditions: for activation at 1 µM / activation at 10 µM / activation at 100 µM: HEK293; for Average response: mean of biological replicates
T1 construct: expressed in transfected cells
T1 sequence (Q9V6H2 1-375): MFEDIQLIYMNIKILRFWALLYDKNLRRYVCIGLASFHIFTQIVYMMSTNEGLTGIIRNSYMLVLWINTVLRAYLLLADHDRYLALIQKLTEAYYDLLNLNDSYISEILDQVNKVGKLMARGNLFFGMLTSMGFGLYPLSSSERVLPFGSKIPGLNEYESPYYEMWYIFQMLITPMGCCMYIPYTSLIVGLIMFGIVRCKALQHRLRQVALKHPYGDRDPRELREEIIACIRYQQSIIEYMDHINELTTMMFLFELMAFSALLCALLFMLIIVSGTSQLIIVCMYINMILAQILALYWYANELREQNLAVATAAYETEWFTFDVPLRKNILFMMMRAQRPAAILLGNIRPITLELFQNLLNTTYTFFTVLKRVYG
T1 sequence (Q9VNB5 1-486 partner): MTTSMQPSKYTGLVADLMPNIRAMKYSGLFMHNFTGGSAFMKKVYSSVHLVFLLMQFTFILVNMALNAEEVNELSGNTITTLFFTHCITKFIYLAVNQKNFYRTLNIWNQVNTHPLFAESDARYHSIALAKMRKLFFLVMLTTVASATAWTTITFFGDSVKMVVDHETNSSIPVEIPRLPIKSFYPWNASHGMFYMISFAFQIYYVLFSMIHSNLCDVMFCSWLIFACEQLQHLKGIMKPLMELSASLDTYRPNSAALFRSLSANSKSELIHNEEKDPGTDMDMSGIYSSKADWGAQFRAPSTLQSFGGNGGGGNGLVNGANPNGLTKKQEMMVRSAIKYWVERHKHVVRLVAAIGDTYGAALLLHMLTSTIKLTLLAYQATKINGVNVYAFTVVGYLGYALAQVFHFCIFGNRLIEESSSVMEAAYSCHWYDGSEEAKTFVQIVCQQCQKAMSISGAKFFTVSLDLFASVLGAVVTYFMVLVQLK
Description: These VUAA1 normalized ∆F values were used to compare the different receptors and ligands.
The concentration-dependent effect of the reference ligands on their cognate cell lines was examined in more detail. Twelve different ligand concentrations were measured on each cell line in an overall 0.01 μM to 100 μM concentration range with 5 repetitions with three technical replicates each time.
Twelve thousand to 18,000 cells were plated into each well of a black wall, transparent bottom 384-well microplate (Greiner) 48 h or 72 h before the measurements and were simultaneously treated with 1 μg/mL doxycycline. […] The plate has 24 columns, thus we could record responses in up to eight different cell lines in each plate. On the day of the experiment, the growth medium was replaced with 20 µL assay buffer/well (140 mM NaCl, 5 mM KCl, 2 mM CaCl2, 1 mM MgCl2, 5 mM HEPES-Na, 20 mM glucose, pH 7.3, 340 mOsm). […] Baseline fluorescence (F0) was recorded for 5 s, after which 7 µL VOC buffer (140 mM NaCl, 5 mM KCl, 2 mM CaCl2, 1 mM MgCl2, 5 mM HEPES-Na, 31 mM glucose, 0.1% DMSO, pH 7.3, 340 mOsm) was injected into each well in one row and the fluorescence response was recorded for an additional 30 s, at a rate of one read/sec. VOC solutions (VOC buffer with 4× concentration of the final measured VOC concentration, 9 µL/well was injected) were measured on the same wells in a second round with the same protocol. Each individual concentration of a specific VOC sample was recorded in three wells for the same cell line on the same microplate. The raw data were exported in xls file format, F0 and FMAX values, and the fluorescence intensity changes (∆F) were calculated in Excel (Microsoft) (Supplementary file Data summary.xlsx) using the following equation: ΔF=FMAX-F0/F0 (see also Fig. 1C). On each plate, we recorded the response of each cell line to 50 µM VUAA1. The average of these ∆F values of each cell line were used to calculate the VUAA1-normalized values for the rest of the plate, by dividing VOC response ∆F values by the average VUAA1 response ∆F value of the corresponding OR cell line. Each VOC-OR combination was measured three times as technical replicates. […] The average of these replicates were used as one ∆F and VUAA1-normalized ∆F in the following analysis.
In the next rows we tested the reference VOCs (or other VOCs known to activate the corresponding cell lines), in order to test if all cell lines are responsive. The remaining rows were used to test VOCs with unknown effect.
The recorded FMAX, F0, ∆F, VUAA1-normalized ∆F values, as well as the OR name, the name of the tested sample, and the final concentration for each well were copied into supplementary file Data summary.xlsx, that was used to summarize all the plates recorded. Here, the averages of the measurements were calculated for each receptor-VOC-concentration combination.

[2] = tested on: OR10a; set-up: method as in earlier work; conditions: DoOR database value, ref DoOR, cited from earlier work
[3] = tested on: OR47a; set-up: method as in earlier work; conditions: DoOR database value; ref DoOR; cited from earlier work
[4] = tested on: OR49b; set-up: method as in earlier work; conditions: DoOR database value, ref DoOR, cited from earlier work
[5] = tested on: OR85b; set-up: method as in earlier work; conditions: DoOR database value, ref DoOR, cited from earlier work
[6] = tested on: OR98a; set-up: method as in earlier work; conditions: DoOR database value, ref DoOR, cited from earlier work
[7] = VOC concentration 1 μM, read-out: OR49b response (VUAA1-normalized response)
[8] = VOC concentration 10 μM, read-out: OR49b response (VUAA1-normalized response)
[9] = VOC concentration 100 μM, read-out: OR49b response (VUAA1-normalized response)
[10] = OR49b cell line, odorant cc. 1 µM
[11] = OR49b cell line, odorant cc. 10 µM
[12] = OR49b cell line, odorant cc. 100 µM
[13] = 1 μM VOC, 50 μM VUAA1 = 1, read-out: OR49b Average response (VUAA1-normalized)
[14] = 10 μM VOC, 50 μM VUAA1 = 1, read-out: OR49b Average response (VUAA1-normalized)
[15] = 100 μM VOC, 50 μM VUAA1 = 1, read-out: OR49b Average response (VUAA1-normalized)
[16] = ligand concentration 1 (unit not given), threshold 0.05, below shown as 0
[17] = ligand concentration 10 (unit not given), threshold 0.05, below shown as 0
[18] = ligand concentration 100 (unit not given), threshold 0.05, below shown as 0
[19] = OR49b cell line, VOC concentration 1 μM
[20] = OR49b cell line, VOC concentration 10 μM
[21] = OR49b cell line, VOC concentration 100 μM
[22] = ligand concentration 100 (unit not given), 0.05 threshold, values below shown as 0
[23] = ligand concentration 1 (unit not given), 0.05 threshold, values below shown as 0
[24] = ligand concentration 10 (unit not given), 0.05 threshold, values below shown as 0

Compound | activation at 1 µM [1, 7] [%] | activation at 10 µM [1, 8] [%] | activation at 100 µM [1, 9] [%] | Average response [1, 10] | Average response [1, 11] | Average response [1, 12] | OR49b response (VUAA1-normalized) at 1 μM [1, 19] | OR49b response (VUAA1-normalized) at 10 μM [1, 20] | OR49b response (VUAA1-normalized) at 100 μM [1, 21] | DF norm AVERAGE OR49b [1, 22] | DF norm AVERAGE OR49b [1, 23] | DF norm AVERAGE OR49b [1, 24] | also measured
CCCCCO [1-pentanol] | 0 | 0 | 0 | 0.00 | 0.00 | 0.0167 | – | – | – | – | – | – | DF norm AVERAGE OR49b [1]: 0; OR10a DoOR response [2]: 0.034; OR47a DoOR response [3]: 0.17; OR49b DoOR response [4]: 0.09; OR85b DoOR response [5]: 0.51; OR98a DoOR response [6]: 0.23
Cc1cccc(O)c1 [3-methylphenol] | 0 | 13 | 43 | 0.00 | 0.13 | 0.43 | – | – | – | – | – | – | activation at 1 µM [1, 13]: 0%; activation at 10 µM [1, 14]: 13%; activation at 100 µM [1, 15]: 43%; OR49b DoOR response [4]: 0.54
CCCCOC(=O)CC [butyl propanoate] | 0 | 0 | 0 | 0.00 | 0.00 | 0.00 | – | – | – | – | – | – | DF norm AVERAGE OR49b [1, 16]: 0; DF norm AVERAGE OR49b [1, 17]: 0; DF norm AVERAGE OR49b [1, 18]: 0; OR10a DoOR response [2]: 0.011; OR47a DoOR response [3]: 0.38
CCCCCCCCCC=O [decanal] | 0 | 0 | 9 | 0.00 | 0.00 | 0.09 | – | – | – | – | – | – | DF norm AVERAGE OR49b [1, 16]: 0; DF norm AVERAGE OR49b [1, 17]: 0; DF norm AVERAGE OR49b [1, 18]: 0.08966; OR10a DoOR response [2]: 0.08
CCCCCCCCC=O [nonanal] | – | – | – | 0.00 | 0.00 | 0.00 | 0.00 | 0.00 | 0.00 | – | – | – | DF norm AVERAGE OR49b [1, 16]: 0; DF norm AVERAGE OR49b [1, 17]: 0; DF norm AVERAGE OR49b [1, 18]: 0; OR10a DoOR response ([2]; OR10a): 0.05; OR49b DoOR response ([4]; OR49b): 0.03; OR85b DoOR response ([5]; OR85b): 0.091; OR98a DoOR response ([6]; OR98a): 0.085
C=Cc1ccccc1 [styrene] | – | – | – | – | – | – | – | – | – | – | – | – | EC50 ([1]; AVERAGE EC50, OR49b, printed with 95% confidence interval, matches the average LOG EC50): 21.1 µM; EC50 ([1]; EC50 (fitted parameter), OR49b, fit of each biological replicate): 16.6 µM and 17.3 µM; EC50 ([1]; EC50, AVERAGE, OR49b, arithmetic average of 5 replicate EC50): 24.9 µM; EC50 ([1]; LOG EC50 (fitted parameter), OR49b, fit of each biological replicate, log of EC50, unit inferred): 46.9 µM; EC50 ([1]; OR49b cell line, fitted Hill equation, Hill coefficient constrained to 1, maximal response max 1, read-out: EC50): 21.1 µM; EC50 ([1]; OR49b, average of 5 biological replicates, read-out: LOG EC50, AVERAGE (converted)): 21.1 µM; EC50 ([1]; OR49b, fit of each biological replicate, log of EC50, unit inferred, read-out: LOG EC50 (fitted parameter) (converted)): 34.6 µM and 16.6 µM and 17.3 µM and 8.95 µM; EC50 ([1]; OR49b, fit of each biological replicate, read-out: EC50 (fitted parameter)): 34.6 µM and 46.9 µM and 8.95 µM; EC50 ([1]; OR49b, fit of the averaged curve, read-out: EC50, FITTED AVERAGE CURVE): 24.4 µM
CCCCCCCCCCCCCC [tetradecane] | – | – | – | 0.07 | 0.05 | 0.0348 | 0.07 | 0.05 | 0.00 | 0 | – | – | DF norm AVERAGE OR49b ([1]; ligand concentration 1 (unit not given), […]): 0.06864; DF norm AVERAGE OR49b ([1]; ligand concentration 10 (unit not given), […]): 0.05202
Cc1ccccc1 [toluene] | – | – | – | 0.00 | 0.00 | 0.44 | 0.00 | 0.00 | 0.44 | – | 0 | 0 | activation at 1 µM [1, 13]: 0%; activation at 10 µM [1, 14]: 0%; activation at 100 µM [1, 15]: 44%; DF norm AVERAGE OR49b ([1]; ligand concentration 100 (unit not given), […]): 0.4351
CCCCCCCCCCC [undecane] | – | – | – | 0.00 | 0.00 | 0.0367 | 0.00 | 0.00 | 0.00 | 0 | 0 | 0 | –
CC/C=C\CCOC(C)=O [z3-hexenyl acetate] | – | – | – | 0.0379 | 0.0171 | 0.04 | – | – | – | 0 | 0 | 0 | –
CC1=CCC23CC1C(C)(C)C2CCC3C (stereo not drawn) [α-funebrene] | – | – | – | 0.00 | 0.00 | 0.00 | 0.00 | 0.00 | 0.00 | 0 | 0 | 0 | –
(+)-beta-cedrene | – | – | – | 0.00 | 0.0336 | 0.00 | – | – | – | – | – | – | DF norm AVERAGE OR49b [1]: 0; OR49b response (VUAA1-normalized response) ([1]; VOC concentration 1 μM): 0.00; OR49b response (VUAA1-normalized response) ([1]; VOC concentration 10 μM): 0.00; OR49b response (VUAA1-normalized response) ([1]; VOC concentration 100 μM): 0.00
(-)-alpha-cedrene | – | – | – | 0.00 | 0.0843 | 0.00 | – | – | – | – | – | – | OR49b response (VUAA1-normalized response) ([1]; VOC concentration 1 μM): 0.00; OR49b response (VUAA1-normalized response) ([1]; VOC concentration 10 μM): 0.0843; OR49b response (VUAA1-normalized response) ([1]; VOC concentration 100 μM): 0.00
